Drawing on ChEMBL document CHEMBL1135547, “Anticholinesterase activity of compounds related to geneserine tautomers. N-Oxides and 1,2-oxazines” (J Med Chem, 2002), this text covers IC50 for 12 compounds.

SMILES strings stand for the structures.

In one assay the target is Cholinesterase (Homo sapiens, UniProt P06276).
The next assay has as its target Acetylcholinesterase (Homo sapiens, UniProt P22303).

Acetylcholinesterase, sequence (P22303 whole entry): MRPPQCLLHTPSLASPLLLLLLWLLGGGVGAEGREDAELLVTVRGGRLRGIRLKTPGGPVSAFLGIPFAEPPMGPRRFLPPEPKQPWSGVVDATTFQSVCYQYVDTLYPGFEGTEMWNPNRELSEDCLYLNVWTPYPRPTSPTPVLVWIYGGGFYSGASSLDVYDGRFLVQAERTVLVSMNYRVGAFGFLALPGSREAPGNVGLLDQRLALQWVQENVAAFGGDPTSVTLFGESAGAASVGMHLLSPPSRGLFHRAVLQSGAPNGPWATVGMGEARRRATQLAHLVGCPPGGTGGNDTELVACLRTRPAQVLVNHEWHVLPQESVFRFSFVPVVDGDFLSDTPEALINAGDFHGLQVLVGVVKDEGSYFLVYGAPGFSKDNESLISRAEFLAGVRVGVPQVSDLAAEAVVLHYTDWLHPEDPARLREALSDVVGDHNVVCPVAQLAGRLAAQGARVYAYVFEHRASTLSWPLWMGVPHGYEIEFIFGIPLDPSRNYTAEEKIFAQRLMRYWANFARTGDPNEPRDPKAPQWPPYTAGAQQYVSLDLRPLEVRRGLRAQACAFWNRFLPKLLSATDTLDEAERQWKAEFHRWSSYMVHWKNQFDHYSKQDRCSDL
Cholinesterase, sequence (P06276 whole entry): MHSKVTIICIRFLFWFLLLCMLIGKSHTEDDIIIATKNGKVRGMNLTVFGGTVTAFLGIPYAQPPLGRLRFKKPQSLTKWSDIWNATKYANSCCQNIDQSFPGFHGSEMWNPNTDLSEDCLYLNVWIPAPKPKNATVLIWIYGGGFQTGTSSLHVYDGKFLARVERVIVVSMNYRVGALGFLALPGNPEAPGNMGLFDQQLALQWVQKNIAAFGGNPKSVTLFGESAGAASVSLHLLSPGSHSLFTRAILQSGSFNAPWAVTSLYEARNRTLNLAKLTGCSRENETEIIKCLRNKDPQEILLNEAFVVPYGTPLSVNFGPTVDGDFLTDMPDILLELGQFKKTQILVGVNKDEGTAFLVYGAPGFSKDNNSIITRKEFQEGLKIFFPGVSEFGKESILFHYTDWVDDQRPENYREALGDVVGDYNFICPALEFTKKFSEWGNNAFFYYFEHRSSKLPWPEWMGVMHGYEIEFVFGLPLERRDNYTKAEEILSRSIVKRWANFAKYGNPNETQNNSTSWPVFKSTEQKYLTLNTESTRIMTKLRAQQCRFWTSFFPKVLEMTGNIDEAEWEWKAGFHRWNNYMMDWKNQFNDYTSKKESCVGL
Description for Acetylcholinesterase: Ex vivo inhibition of human erythrocyte Acetylcholinesterase.

What is called IC50 is the concentration needed to halve the response being measured. In the case of `C/C=C1\[C@H]2C=C(C)C[C@]1(N)c1ccc(=O)[nH]c1C2` [HUPERZINE A], the IC50 against Cholinesterase is above 10000 nM. Regarding `CCCCCCCNC(=O)Oc1ccc2c(c1)[C@]1(C)CCN(C)[C@@H]1N2C` [EPTASTIGMINE], the IC50 against Acetylcholinesterase stood at 22 nM; at Cholinesterase it was 5 nM.

In the case of `CCc1ccccc1NC(=O)Oc1ccc2c(c1)[C@]1(C)CC[N@@+](C)([O-])[C@@H]1N2C`, the IC50 on Acetylcholinesterase was found to be 125 nM; at Cholinesterase, 1700 nM. For `CCc1ccccc1NC(=O)Oc1ccc2c(c1)[C@]1(C)CCN(C)O[C@@H]1N2C` [GANSTIGMINE], the 50% inhibitory concentration (IC50) was determined as 65 nM against Acetylcholinesterase and 310 nM against Cholinesterase. On to `CC(C)c1ccc(NC(=O)Oc2ccc3c(c2)[C@]2(C)CC[N@@+](C)([O-])[C@@H]2N3C)cc1`, for which the values for the IC50 against Acetylcholinesterase and on Cholinesterase were above 10000 nM and 5200 nM, respectively. Take `Cc1ccccc1NC(=O)Oc1ccc2c(c1)[C@]1(C)CCN(C)O[C@@H]1N2C`: the figures for the IC50 against Acetylcholinesterase and against Cholinesterase were 175 nM and 1570 nM, respectively. For the compound `CNC(=O)Oc1ccc2c(c1)[C@]1(C)CC[N@@+](C)([O-])[C@@H]1N2C`, the IC50 at Acetylcholinesterase came out at 100 nM; against Cholinesterase, 660 nM. As for `CN1c2ccc(OC(=O)Nc3ccccc3)cc2[C@]2(C)CC[N@@+](C)([O-])[C@H]12`, the 50% inhibitory concentration (IC50) at Acetylcholinesterase is 200 nM; at Cholinesterase, above 10000 nM. For the compound `CN1CC[C@@]2(C)c3cc(OC(=O)Nc4ccccc4)ccc3N(C)[C@H]2O1`, the figures for the IC50 on Acetylcholinesterase and against Cholinesterase were 130 nM and 815 nM, respectively.

With `Cc1ccccc1NC(=O)Oc1ccc2c(c1)[C@]1(C)CC[N@@+](C)([O-])[C@@H]1N2C`, the half-maximal inhibitory concentration (IC50) against Acetylcholinesterase was 180 nM; at Cholinesterase, above 10000 nM. Turning to `CNC(=O)Oc1ccc2c(c1)[C@]1(C)CCN(C)O[C@@H]1N2C` [ESERIDINE], inhibition on Cholinesterase was half-maximal at 12 nM (IC50). `CC(C)c1ccc(NC(=O)Oc2ccc3c(c2)[C@]2(C)CCN(C)O[C@@H]2N3C)cc1`: the half-maximal inhibitory concentration (IC50) against Acetylcholinesterase is above 10000 nM; at Cholinesterase, 25 nM.
